Active and inactive are the calls of the source. The rule behind the calls is not given here.
Legend:
[1] = Inhibition of TNF-alpha induced NF-kappaB activation in HEK293T cells preincubated for 4 hrs and followed by TNF-alpha stimulation and measured after 4 hrs by dual-luciferase reporter assay; assay type: cell-based; details: Homo sapiens, HEK-293T
[2] = Cytotoxicity against TNF-alpha induced HEK293T cells assessed as inhibition of cell growth preincubated for 24 hrs followed by TNFalpha stimulation and measured after 4 hrs by SRB assay; assay type: toxicity, cell-based, HEK-293T; details: human, HEK293T cells induced with TNF-alpha; time 28 hrs
[3] = Cytotoxicity against human HCT-116 cells assessed as inhibition in cell proliferation; assay type: toxicity, cell-based
[4] = tested on: HCT-116; test: Inhibition of TNF-alpha-induced NF-kappaB nuclear translocation in human HCT-116 cells preincubated for 4 hrs followed by TNF-alpha stimulation and measured after 30 mins by immunofluorescence staining based laser scanning confocal microscopic analysis; assay type: cell-based; details: dose 25-50 µM, time 4.5 hrs
[5] = tested on: DLD-1; test: Inhibition of TNF-alpha induced NF-kB activation in human DLD-1 cells assessed as decrease in phosphorylated IkappaBalpha protein expression preincubated for 4 hrs and followed TNF-alpha stimulation and measured after 10 mins by Western blot analysis; assay type: cell-based; details: dose 12.5-50 µM, time 250.0 min
[6] = tested on: HCT-116; test: Inhibition of TNF-alpha induced activation of MAPK signaling pathway in human HCT-116 cells assessed as change in phosphorylated p38 level at 6.25 to 50 uM preincubated for 4 hrs and followed TNF-alpha stimulation and measured after 10 mins by Western blot analysis; assay type: cell-based; details: dose 6.25-50 µM, time 250.0 min
[7] = tested on: HCT-116; test: Inhibition of TNF-alpha induced NF-kB activation in human HCT-116 cells assessed as decrease in phosphorylated p65 protein expression preincubated for 4 hrs and followed TNF-alpha stimulation and measured after 10 mins by Western blot analysis; assay type: cell-based; details: dose 12.5-50 µM, time 250.0 min
[8] = target: T1, NF-kappa-B inhibitor alpha (Homo sapiens) (UniProt P25963); test: Inhibition of proteasomal degradation of IkappaBalpha in TNF-alpha induced human DLD-1 cells assessed as increase in IkappaBalpha protein expression at 12.5 to 50 uM preincubated for 4 hrs and followed TNF-alpha stimulation and measured after 10 mins by Western blot analysis; assay type: cell-based; details: dose 12.5-50 µM, time 250.0 min
T1 sequence (whole entry): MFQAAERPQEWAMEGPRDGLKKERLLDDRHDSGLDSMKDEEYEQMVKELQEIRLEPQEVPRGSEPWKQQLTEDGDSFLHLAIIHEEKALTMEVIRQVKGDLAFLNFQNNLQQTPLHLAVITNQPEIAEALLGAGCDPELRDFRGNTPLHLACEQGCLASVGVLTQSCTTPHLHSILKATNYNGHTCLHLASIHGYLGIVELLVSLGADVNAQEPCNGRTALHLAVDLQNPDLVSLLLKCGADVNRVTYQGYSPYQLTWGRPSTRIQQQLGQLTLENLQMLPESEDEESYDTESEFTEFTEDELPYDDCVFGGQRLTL

[9] = tested on: DLD-1; test: Inhibition of TNF-alpha induced activation of MAPK signaling pathway in human DLD-1 cells assessed as change in phosphorylated p38 level at 6.25 to 50 uM preincubated for 4 hrs and followed TNF-alpha stimulation and measured after 10 mins by Western blot analysis; assay type: cell-based; details: dose 6.25-50 µM, time 250.0 min
[10] = tested on: DLD-1; test: Effect on p38 protein expression in TNF-alpha stimulated human DLD-1 cells at 6.25 to 50 uM preincubated for 4 hrs and followed TNF-alpha stimulation and measured after 10 mins by Western blot analysis; assay type: functional, cell-based; details: dose 6.25-50 µM, time 250.0 min
[11] = tested on: HCT-116; test: Activation of MAPK signaling pathway in TNF-alpha stimulated human HCT-116 cells assessed as increase in phospho-JNK protein expression at 50 uM preincubated for 4 hrs and followed TNF-alpha stimulation and measured after 10 mins by Western blot analysis; assay type: cell-based; details: filed as activator, time 250.0 min
[12] = tested on: HCT-116; test: Inhibition of TNF-alpha induced MAPK signaling pathway activation in human HCT-116 cells assessed as decrease in phospho-JNK protein expression at 6.25 uM preincubated for 4 hrs and followed TNF-alpha stimulation and measured after 10 mins by Western blot analysis; assay type: cell-based; details: time 250.0 min
[13] = tested on: DLD-1; test: Inhibition of TNF-alpha induced MAPK signaling pathway activation in human DLD-1 cells assessed as decrease in phospho-JNK protein expression at 12.5 uM preincubated for 4 hrs and followed TNF-alpha stimulation and measured after 10 mins by Western blot analysis; assay type: cell-based; details: time 250.0 min
[14] = tested on: DLD-1; test: Inhibition of TNF-alpha induced MAPK signaling pathway activation in human DLD-1 cells assessed as decrease in phospho-ERK protein expression at 12.5 uM preincubated for 4 hrs and followed TNF-alpha stimulation and measured after 10 mins by Western blot analysis; assay type: cell-based; details: time 250.0 min
[15] = tested on: Mus musculus; test: Anti-inflammatory activity in C57BL/6 mouse model of DSS-induced acute ulcerative colitis assessed as reduction in submucosal edema at 100 to 300 mg/kg, po administered once a day for 7 days by H and E staining based analysis; assay type: functional, organism-based; details: dose 100-300 mg/kg, time 7.0 day
[16] = tested on: Mus musculus; test: Anti-inflammatory activity in po dosed C57BL/6 mouse model of DSS-induced acute ulcerative colitis assessed as reduction in CCL2 mRNA expression in colon administered once a day for 7 days by RT-PCR analysis; assay type: functional, organism-based; details: dose 100-300 mg/kg, time 7.0 day
[17] = tested on: Mus musculus; test: Anti-inflammatory activity in po dosed C57BL/6 mouse model of DSS-induced acute ulcerative colitis assessed as reduction in COX2 mRNA expression in colon administered once a day for 7 days by RT-PCR analysis; assay type: functional, organism-based; details: dose 100-300 mg/kg, time 7.0 day
[18] = tested on: Mus musculus; test: Anti-inflammatory activity in po dosed C57BL/6 mouse model of DSS-induced acute ulcerative colitis assessed as reduction in IL-17A mRNA expression in colon administered once a day for 7 days by RT-PCR analysis; assay type: functional, organism-based; details: dose 100-300 mg/kg, time 7.0 day
[19] = Toxicity in C57BL/6 mouse model of DSS-induced acute ulcerative colitis assessed as effect on heart tissue at 100 to 300 mg/kg, po administered once a day for 7 days by H and E staining based analysis; assay type: organism-based; details: in vivo, 168 h, dose 100-300 mg/kg, time 7 day
[20] = Toxicity in C57BL/6 mouse model of DSS-induced acute ulcerative colitis assessed as effect on spleen tissue at 100 to 300 mg/kg, po administered once a day for 7 days by H and E staining based analysis; assay type: organism-based; details: in vivo, 168 h, dose 100-300 mg/kg, time 7 day
[21] = Toxicity in C57BL/6 mouse model of DSS-induced acute ulcerative colitis assessed as effect on kidney tissue at 100 to 300 mg/kg, po administered once a day for 7 days by H and E staining based analysis; assay type: organism-based; details: in vivo, 168 h, dose 100-300 mg/kg, time 7 day
[22] = Toxicity in C57BL/6 mouse model of DSS-induced acute ulcerative colitis assessed as effect on stomach at 100 to 300 mg/kg, po administered once a day for 7 days by H and E staining based analysis; assay type: organism-based; details: in vivo, 168 h, dose 100-300 mg/kg, time 7 day
[23] = tested on: DLD-1; test: Cytotoxicity against human DLD-1 cells assessed as induction of stress response at 50 uM; assay type: toxicity, cell-based; details: dld-1, 50 µM
[24] = tested on: HCT-116; test: Cytotoxicity against human HCT-116 cells assessed as induction of stress response at 50 uM; assay type: toxicity, cell-based; details: hct-116, 50 µM
[25] = tested on: Mus musculus; test: Anti-inflammatory activity in C57BL/6 mouse model of DSS-induced acute ulcerative colitis assessed as reduction in tissue lesions at 100 to 300 mg/kg, po administered once a day for 7 days by H and E staining based analysis; assay type: functional, organism-based; details: dose 100-300 mg/kg, time 7.0 day
[26] = tested on: Mus musculus; test: Anti-inflammatory activity in C57BL/6 mouse model of DSS-induced acute ulcerative colitis assessed as reversal of DSS-induced weight loss at 100 to 300 mg/kg, po administered once a day for 7 days; assay type: functional, organism-based; details: dose 100-300 mg/kg, time 7.0 day

IC50 [1]: 16.1 µM
inhibition [8]: Active
Compound: COC(=O)C1=C(C(=O)OC)C2OC1CC2C#Cc1ccc(C)cc1 (stereo unspecified)
CC50 at 4 h [2]: 94.3 µM
IC50 [3]: 14.3 µM
inhibition [4]: Dose-Dependent Effect
inhibition [5]: Dose-Dependent Effect
inhibition [6]: inactive
inhibition [7]: Dose-Dependent Effect
inhibition [9]: inactive
Activity [10]: inactive
Activity [11]: Active
inhibition [12]: Active
inhibition [13]: Active
inhibition [14]: Active
Activity [15]: Active
Activity [16]: Dose-Dependent Effect
Activity [17]: Dose-Dependent Effect
Activity [18]: Dose-Dependent Effect
Activity [19]: Non-Toxic
Activity [20]: Non-Toxic
Activity [21]: Non-Toxic
Activity [22]: Non-Toxic
Activity [23]: Toxic
Activity [24]: Toxic
Activity [25]: Active
Activity [26]: Active
